Molecules are shown by their SMILES. pIC50: −log10 of the molar value. A value given as a limit tells only on which side of the number the result lay.

Holding throughout (format): cell-based, human
In one assay the test system is mPTP-active Daoy cell. The experiment in a line: Inhibitory effect on mPTP-active Daoy cell (Promega CellTiter-Glo, intracellular ATP). The following applies: Daoy cell transfected with empty virus vector without PPIF shRNA. (In general: Cellular ATP, detected with luciferase, serves as a proxy for viable cell number.)
For another assay, the system named is mPTP-inactive Daoy cell. The experiment in a line: Inhibitory effect on mPTP-inactive Daoy cell (PPIF shRNA; Promega CellTiter-Glo, intracellular ATP). The conditions noted are these: Daoy cell transfected with virus vector carrying PPIF shRNA. From the text:
The activity of mitochondria permeability transition pore (mPTP) was regulated by the PPIF protein. […] PPIF protein activity was restricted by the expression level of PPIF protein in cell.

Assay [1] concerns mitochondria permeability transition pore. The experiment in a line: Mitochondria membrane potential (TMRM) in Daoy cell, mPTP activity. The following applies: H2O2 +, CsA −; untreated = 100. From the text: (§1) For cells with active mitochondria permeability transition pore, adding peroxide (such as H2O2) could increase the activity of mitochondria permeability transition pore, resulting in a decrease in mitochondria membrane potential.

Assay [2] has the same test system. The experiment in a line: Mitochondria membrane potential (TMRM) in Daoy cell transfected with empty virus vector. The conditions noted are these: H2O2 +, CsA −; untreated = 100.
Description: as §1

Assay [3] shares this test system. The experiment in a line: Mitochondria membrane potential (TMRM) in Daoy cell transfected with virus vector carrying PPIF shRNA. The conditions noted are these: H2O2 +, CsA −; untreated = 100.
Description: as §1

In general, pIC50 refers to the negative decadic logarithm of the IC50, by convention in mol/L. Low values mean a high IC50, high ones a low IC50. In the case of `CC1=C2c3cc4c(cc3CCN2C(C(Cl)(Cl)Cl)c2c1ccc1c2OCO1)OCO4` (centres unmarked) [AB36442], the pIC50 is 4.52 with mPTP-active Daoy cell (Homo sapiens, Daoy) and 4.53 with mPTP-inactive Daoy cell (Homo sapiens, Daoy).
`COc1ccc2c(c1OC)C(C1CCC1)N1CCc3cc4c(cc3C1=C2)OCO4` (centres unmarked) [AB36447]: the pIC50 in the assay with mPTP-active Daoy cell (Homo sapiens, Daoy) is 5.17; in the assay with mPTP-inactive Daoy cell (Homo sapiens, Daoy) it was 5.58.
Turning to `COc1ccc2c(c1Cl)CN1CCc3cc4c(cc3C1=C2)OCO4` [AB36450], the pIC50 in the assay with mPTP-active Daoy cell (Homo sapiens, Daoy) is 5.29; with mPTP-inactive Daoy cell (Homo sapiens, Daoy) it was 5.65.
On to `COc1ccc2c(c1Br)CN1CCc3cc4c(cc3C1=C2)OCO4` [AB36460], for which the pIC50 in the assay with mPTP-active Daoy cell (Homo sapiens, Daoy) is 5.57; in the assay with mPTP-inactive Daoy cell (Homo sapiens, Daoy) it was 5.90.
On to `COc1ccc2c(c1OC)CN1CCc3cc4c(cc3C1=C2)OCO4` [AB36463], for which the pIC50 is 5.71 in the assay with mPTP-active Daoy cell (Homo sapiens, Daoy) and 6.06 with mPTP-inactive Daoy cell (Homo sapiens, Daoy).
For `COc1ccc2c(c1OC)C(c1ccccc1)N1CCc3cc4c(cc3C1=C2)OCO4` (centres unmarked) [AB36467], the pIC50 with mPTP-active Daoy cell (Homo sapiens, Daoy) is 4.92; in the assay with mPTP-inactive Daoy cell (Homo sapiens, Daoy) it was 5.33.
Regarding `COc1ccc2c(c1OC)C(CC(C)=O)N1CCc3cc4c(cc3C1=C2)OCO4` (centres unmarked) [AB36472], the pIC50 with mPTP-active Daoy cell (Homo sapiens, Daoy) was 4.80; in the assay on mPTP-inactive Daoy cell (Homo sapiens, Daoy), 4.80.
With `COc1c(OCCCCl)ccc2c1C(C1CCCC1)N1CCc3cc4c(cc3C1=C2)OCO4` (centres unmarked) [AB36474], the pIC50 in the assay on mPTP-active Daoy cell (Homo sapiens, Daoy) is 5.37; with mPTP-inactive Daoy cell (Homo sapiens, Daoy) it was 5.86.
For `[2H]C1([2H])c2c(ccc(OC)c2OC)C=C2c3cc4c(cc3CCN21)OCO4` [AB36476], the pIC50 in the assay with mPTP-active Daoy cell is 5.62; with mPTP-inactive Daoy cell it was 5.96.
As for `[2H]C1c2c(ccc(OC)c2OC)C=C2c3cc4c(cc3CC([2H])([2H])N21)OCO4` (centres unmarked) [AB36477], the pIC50 with mPTP-active Daoy cell (Homo sapiens, Daoy) is 5.60; with mPTP-inactive Daoy cell (Homo sapiens, Daoy), 5.88.
Regarding `COc1ccc2c(c1OC)C(c1ccncc1)N1CCc3cc4c(cc3C1=C2)OCO4` (centres unmarked) [AB36488], the negative logarithm of the IC50 (pIC50) in the assay on mPTP-active Daoy cell (Homo sapiens, Daoy) was 4.57; in the assay on mPTP-inactive Daoy cell (Homo sapiens, Daoy), 4.57.
For the molecule `COc1ccc2c(c1N1CCCCCC1)CN1CCc3cc4c(cc3C1=C2)OCO4` [AB36493], the pIC50 is 5.87 with mPTP-active Daoy cell (Homo sapiens, Daoy) and 6.46 with mPTP-inactive Daoy cell (Homo sapiens, Daoy).
The like results for `COc1ccc2cc3n(c(=O)c2c1OC)CCc1cc2c(cc1-3)OCO2` [AB36496] were, in that order, 4.06 and under 4.00.
The like results for `COc1ccc2c(c1OC)C(C1CCCC1)N1CCc3cc4c(cc3C1C2)OCO4` (centres unmarked) [AB36497] were, in that order, 4.17 and 4.16.
In the same order, the values of `[2H]C([2H])([2H])Oc1c(OC)ccc2c1C(C1CCCC1)N1CCc3cc4c(cc3C1=C2)OCO4` (centres unmarked) [AB36501] are 4.89 and 5.46.
With `[2H]C([2H])([2H])Oc1c(OC)ccc2c1C([2H])(C1CCCC1)N1CCc3cc4c(cc3C1=C2)OCO4` (centres unmarked) [AB36509], the pIC50 in the assay on mPTP-active Daoy cell (Homo sapiens, Daoy) was 5.67; in the assay on mPTP-inactive Daoy cell (Homo sapiens, Daoy), 6.35.
For the molecule `COc1ccc2c(c1OC)C(=C(Cl)Cl)N1CCc3cc4c(cc3C1=C2)OCO4` [AB36512], the pIC50 in the assay on mPTP-active Daoy cell (Homo sapiens, Daoy) is 5.19; in the assay with mPTP-inactive Daoy cell (Homo sapiens, Daoy) it was 5.15.
In the same order, the values of `COc1ccc2c(c1OC)C(n1cccc1)N1CCc3cc4c(cc3C1=C2)OCO4` (centres unmarked) [AB36520] are 4.79 and 4.80.
In the same order, the values of `COc1ccc2c(c1OC)C(C1CCCCC1=O)N1CCc3cc4c(cc3C1=C2)OCO4` (centres unmarked) [AB36525] are 5.82 and 5.78.
As to `OO` [Compound H2O2, H2O2], the “Relative TMRM signal intensity (%) in Daoy cell, mean value” in assay [1] was determined as 82%. In assay [2], the “Relative TMRM signal intensity (%) in the Daoy cell transfected with empty virus vector, mean value” came to 79%. Also, the “Relative TMRM signal intensity (%) in the Daoy cell transfected with virus vector carrying PPIF shRNA, mean value” in assay [3] was determined as 95%.

Values taken from US20250197389A1, “NITROGEN-CONTAINING HETEROCYCLIC COMPOUND” (SHANGHAI SHIJIANG BIOTECHNOLOGY CO., LTD, priority 2022, published 2025).
